# Test results as given in patent US20250249001A1, “METHODS OF TREATING SUBSTANCE USE DISORDER WITH 4-(3-CYANOPHENYL)-6-PYRIDINYLPYRIMIDINE MGLU5 NEGATIVE ALLOSTERIC MODULATORS” (Tempero Bio, Inc., priority 2022, published 2025).
# Tests used:
# [1] = system: cue-induced reinstatement of alcohol-seeking behavior in Wistar rats; test: Cue-induced reinstatement of alcohol-seeking behavior; format: in vivo; conditions: 10 mg/kg IP
# Description: Operant alcohol self-administration training. Male Wistar rats (n=12) were trained to self-administer alcohol in two-lever operant conditioning chambers as described above. A total of n=11 rats completed the experiment. […] Fluid cups were inspected at the end of each session to verify intake. Extinction.
# Cue-induced reinstatement test. On the next day, rats were given a reinstatement test in which lever press responses were followed by presentation of the cue light and auditory pump sound (as during training) but in the absence of ethanol reinforcement to examine cue-induced alcohol-seeking behavior (see Cue-induced reinstatement method FIG. 9A, right panel). One hour prior to the reinstatement session rats were divided into 2 equal subgroups groups and administered Compound 1 (0 or 10 mg/kg, IP) to determine if Compound 1 alters cue-induced reinstatement of alcohol-seeking behavior as compared to vehicle control. Groups were matched on body weight, baseline response totals, and extinction performance prior to drug testing. After this test, rats were returned to baseline conditions. […]
# [2] = system: operant alcohol self-administration in Wistar rats; test: Operant alcohol self-administration, repeated oral pellet treatment (A-B-A); format: in vivo; conditions: 10 mg/kg oral in palatable food pellet, 2-hr before daily sessions, 7 days (Days 6-12)
# Protocol: Repeated treatment with Compound 1. To evaluate effects of repeated treatment with Compound 1 on operant alcohol self-administration, a separate group of rats (n=12) was trained to self-administer alcohol as described above. After operant behavior reached a stable baseline, habituation to i.p. injections were conducted as described above. […] Another group of rats (n=12) was then trained to self-administer alcohol and a new injection protocol (e.g., 2-hr pretreatment time) was initiated. […] In a final attempt to evaluate repeated treatment, we re-established baseline behavior in the same rats and administered Compound 1 (0 and 10 mg/kg) orally in a palatable food pellet as previously reported. Doses were administered according to an A-B-A (vehicle-Compound 1-vehicle) experimental design with 5 consecutive days of exposure to each vehicle treatment and 7 days of exposure to Compound 1. There was no observable stress response using this method of exposure. Operant self-administration (number of alcohol reinforced lever presses) was recorded during daily 15-min test sessions (n=12 rats).
# In a final attempt to salvage the study, injections were halted in the second group of rats and EtOH self-administration behavior was allowed to stabilize over a 1-week period. […]
smiles,measurement,setting,value
"N#Cc1cc(Cl)cc(-c2cc(-c3ccc(F)cn3)ncn2)c1 [Compound 1, 3-chloro-5-[6-(5-fluoropyridin-2-yl)pyrimidin-4-yl]benzonitrile]","cue-induced reinstatement, total responses on the previously active lever",[1]; one hour prior to reinstatement session,blocked
same,"cue-induced reinstatement, responding relative to extinction performance",[1]; vehicle ~400% of extinction level,fully blocked
same,"EtOH reinforced lever press responses, repeated treatment",[2],failed to alter operant alcohol self-administration
